Test results from patent publication US12077495B2 (priority 2018, dated 2024).

How the values were obtained:
[1] = system: photothrombotic focal ischemia in C57BL/6J mice; assay: Photothrombotic mouse model of focal ischemia, infarct volume; assay type: in vivo; conditions: for infarct volume: saline 9.38
Procedure: (§1) All procedures were performed in accordance with the guidelines on the care and use of laboratory animals set out by the University of Otago, Animal Research Committee and the Guide for Care and Use of Laboratory Animals (NIH Publication No. 85-23, 1996). All in vivo studies were approved by the University of Otago Animal Ethics Committee and are reported according to the ARRIVE (Animal Research: Reporting In Vivo Experiments) guidelines. The photochemical cortical lesion model resembles situations of acute brain injury related clinically to stroke and traumatic brain injury (TBI). Focal ischemia was induced by photothrombosis in male C57BL/6J mice (8-10 weeks) weighing ˜23-30 g as previously described (Clarkson et al., 2010). Under anesthesia with isoflurane (2% to 2.5% in O2) mice were placed in a stereotactic apparatus, the skull exposed through a midline incision, cleared of connective tissue and dried. A cold light source (KL1500 LCD, Zeiss, Auckland, New Zealand) attached to a 40× objective providing a 2-mm diameter illumination was positioned 1.5 mm lateral from bregma. Then, 0.2 ml of Rose Bengal (Sigma-Aldrich, Auckland, New Zealand; 10 mg/ml in normal saline) was administered i.p. After 5 min, the brain was illuminated through the exposed intact skull for 15 min, while keeping body temperature at 37.0±0.3° C. degrees using a heating pad (Harvard apparatus, Holliston, MA, USA). The skin was glued and animals left in a cage placed on a heating pad during the wake-up phase. Mice were housed under a 12-hr light/dark cycle with ad libitum access to food and water. Further, the mice were monitored and weighed on a daily basis.
(§2) For in vivo studies, all compounds were dissolved in a mixture of sterile saline and H2O to obtain isotonicity (0.9%) and administered as 10 mg/ml and 10 μl of solution per gram mouse body weight. The injection of compound (i.p.) was performed 30 min, 3, 6 or 12 hrs after induction of the photothrombotic stroke. The vehicle groups received a corresponding volume of saline (0.9%) at the same time points (30 min, 3, 6 or 12 hrs).
For quantification of the infarcted area, animals were perfused with saline and then with 4% paraformaldehyde (PFA) and the brain dissected out and submerged in 4% PFA for post-fixing overnight. Then the brains were moved to 30% sucrose solution and kept at 4° C. until processing. Brains were cut in 30 μm sections, free-floating in anti-freeze media. Sections were mounted, stained for cresyl violet and the infarct volumes determined by measuring every 6th section through the entire infarct as described in Lie et al (2017). All analyses were performed by an observer blinded to the treatment groups. Brains from the pMCAO studies were flash-frozen in CO2 (gas) and processed into six parallel series of sections (30 μm). Separate series were collected on glass slides and used for infarct size analysis or in Eppendorf tubes and used for qPCR. The glass slides were stored at −80° C. until further processing, and then Cresyl-Violet stained and quantified as described for the photothrombotic photochemical method.

[2] = system: photothrombotic focal ischemia in C57BL/6J mice; assay: Photothrombotic model, behavioural assessment (grid-walking and cylinder tasks); assay type: in vivo; conditions: for cylinder task, improvement vs saline / grid-walking task, reduction of asymmetry: 7 days after ischemia
Procedure: as §1, §2
Forelimb motor performance was determined using the cylinder and grid-walking tasks as previously described (Clarkson et al., 2010). All animals were tested both in a pre- and post-testing session, 1 week before and 3 days or 7 days after the ischemic insult, respectively. Observers who scored the behaviour were blinded to the treatment groups.

[3] = 175 mg/kg i.p. 30 min after stroke, day 3
[4] = 175 mg/kg 30 min after ischemia, day 3

`O=C(O)C1=CC(O)CC1` (stereo not shown) [Compound A, 3-hydroxycyclopent-1-enecarboxylic acid] was tested, and the infarct volume ([1]; 17.5 mg/kg i.p. 30 min after stroke, day 3, not significant) was 8.95 mm^3, the “decrease of infarct size vs saline” value ([1]; 90 mg/kg 3 hrs after stroke) was 51% and the infarct size ([1]; 90 mg/kg 3 hrs after stroke, saline 5.55) was 2.68 mm^3. The “decrease of infarct size vs saline” value ([1]; 175 mg/kg i.p. 3, 6 or 12 hrs after stroke) was 33-43%, the “reduction of infarct volume vs saline” value [1, 3] was 30% and the infarct volume [1, 3] was 6.56 mm^3. For the same compound, the infarct size ([1]; 175 mg/kg i.p. 3 hrs after stroke, saline 5.51) was 3.12 mm^3, the infarct size ([1]; 175 mg/kg i.p. 6 hrs after stroke, saline 5.51) was 3.68 mm^3 and the infarct size ([1]; 175 mg/kg i.p. 12 hrs after stroke, saline 5.51) was 3.58 mm^3. For the same compound, the “cylinder task, reduction of asymmetry” value ([2]; 17.5 mg/kg 30 min after ischemia, day 3) was 40%, the “grid-walking task, reduction vs saline” value ([2]; 17.5 mg/kg 30 min after ischemia, day 3, non-significant) was 10% and the “cylinder task, reduction of asymmetry” value [2, 4] was 42%. The “grid-walking task, improvement vs saline” value [2, 4] was 26%, the “cylinder task, improvement vs saline” value ([2]; 175 mg/kg 3 hr after ischemia) was 16% and the “grid-walking task, reduction of asymmetry” value ([2]; 175 mg/kg 3 hr after ischemia) was 31%. For the same compound, the “cylinder task, improvement vs saline” value ([2]; 175 mg/kg 6 hr after ischemia) was 20%, the “grid-walking task, reduction of asymmetry” value ([2]; 175 mg/kg 6 hr after ischemia) was 22% and the “cylinder task, improvement vs saline” value ([2]; 175 mg/kg 12 hr after ischemia) was “non-significant”. The “grid-walking task, reduction of asymmetry” value ([2]; 175 mg/kg 12 hr after ischemia) was 21%.
